The text below walks through data of patent US11801247B1, “Method of treating trypanosomiasis” (KING FAISAL UNIVERSITY, priority 2023, dated 2023).

≈ marks a conversion by molar mass, not a printed value. Like-named read-outs stand apart in the source and are kept apart here.

The test system of assay [1] is T. b. brucei (Tbb) GuTat3.1. The assay can be described thus: Anti-trypanosomal assay (CellTiter-Glo viability). It counts as cell-based. Conditions: TbbGUTat3.1, mean ± SD. From the text: (§1) Raltitrexed was purchased from ApexBio (Houston, TX, USA), and CultureSure DMSO was obtained from Wako Pure Chemical (Osaka, Japan). T. b. brucei (Tbb) GuTat3.1, T. b. rhodesiense (Tbr) IL1501, T. b. gambiense (Tbg) IL1922 (isolated from Ivory Coast), T. evansi (Tev) Tansui (isolated from Taiwan), T. equiperdum (Teq) IVM-t1 and T. congolense (Tc) IL3000 were also obtained for this study. A 96-well Optical bottom plate was purchased from ThermoFisher […] (Waltham, MA, USA). CellTiter-Glo Luminescent cell viability reagent and GloMax plate reader were purchased from Promega Corporation (Fitchburg, WI, USA). Hiram's modified Isocove's Dulbecco's medium (HMI-9), HEPES, pyruvic acid sodium salt, BSA, thymidine, 2-mercaptoethanol, L-cysteine, bathocuproine and hypoxanthine were purchased from Sigma-Aldrich (Tokyo, Japan). A basic plate shaker was obtained from IKA® JAPAN (K.K., Osaka, Japan).
(§2) The trypanocidal activity of raltitrexed was evaluated. The trypanosomes were cultured at 37° C. for Tbb, Tbg, Tbr, Teq and Tev and 33° C. for Tc in an incubator at 5% CO2 using HMI-9 supplemented with 20% heat-inactivated fetal calf serum, 60 mM HEPES, 10 μg/L insulin, 0.1 mM bathocuproine, 5.5 μg/L transferrin, 1 mM pyruvic acid sodium salt, 1 mM hypoxanthine, 16 μM thymidine, 6.7 ng/L sodium selenite, 0.0001% 2-$-mercaptoethanol, 2 mM L-cysteine and 0.4 g/L BSA. Trypanosomes were subcultured every two days. Raltitrexed was dissolved in DMSO:H2O (1:10, v/v). The effect of the solvent was assessed to be negligible on the parasite.
(§3) Initially, raltitrexed was examined at two concentrations of 25 and 0.25 μg/ml to check the possible extended spectrum opportunities against six trypanosomes. […] This range was effective in the accurate estimation of the IC50 of the compound. After three days of cultivation, 25 μL of CellTiter-Glo Luminescent cell viability reagent were aliquoted into each well, and the plate was shaken for 500 shakes/min by an MS3 basic plate shaker for 30 s to facilitate cell lysis and release intracellular ATP. After mixing, the bioluminescence of each well was measured using a Glomax plate reader.
(In general: In ATP-based viability assays light output follows the ATP content of the culture.)

The test system of assay [2] is T. b. gambiense (Tbg) IL1922. The experiment in a line: Anti-trypanosomal assay (CellTiter-Glo viability). It counts as cell-based. Conditions: TbgIL1922, mean ± SD.
From the text: as §1, §2, §3

For assay [3], the system named is T. b. rhodesiense (Tbr) IL1501. The assay can be described thus: Anti-trypanosomal assay (CellTiter-Glo viability). It counts as cell-based. Conditions: TbrIL1501, mean ± SD.
From the text: as §1, §2, §3

The subject of assay [4] is T. congolense (Tc) IL3000. The assay can be described thus: Anti-trypanosomal assay (CellTiter-Glo viability). It counts as cell-based. Conditions: TcIL3000.
From the text: as §1, §2, §3

Assay [5] concerns T. equiperdum (Teq) IVM-t1. The assay can be described thus: Anti-trypanosomal assay (CellTiter-Glo viability). It counts as cell-based. Conditions: mean ± SD.
From the text: as §1, §2, §3

The next assay has as its system T. evansi (Tev) Tansui. The assay can be described thus: Anti-trypanosomal assay (CellTiter-Glo viability). It counts as cell-based. Conditions: mean ± SD.
From the text: as §1, §2, §3

The next assay has as its system six Trypanosoma species. The experiment in a line: Anti-trypanosomal assay, six trypanosomes taken together. It counts as cell-based.
From the text: as §1, §2
Initially, raltitrexed was examined at two concentrations of 25 and 0.25 μg/ml to check the possible extended spectrum opportunities against six trypanosomes. […] This range was effective in the accurate estimation of the IC50 of the compound. […] After mixing, the bioluminescence of each well was measured using a Glomax plate reader.

In assay [6] the target is DHFR activity of TbDHFR-TS (Trypanosoma brucei brucei, UniProt Q27783). As to conditions: cited from earlier work.
DHFR activity of TbDHFR-TS, sequence (Q27783 whole entry): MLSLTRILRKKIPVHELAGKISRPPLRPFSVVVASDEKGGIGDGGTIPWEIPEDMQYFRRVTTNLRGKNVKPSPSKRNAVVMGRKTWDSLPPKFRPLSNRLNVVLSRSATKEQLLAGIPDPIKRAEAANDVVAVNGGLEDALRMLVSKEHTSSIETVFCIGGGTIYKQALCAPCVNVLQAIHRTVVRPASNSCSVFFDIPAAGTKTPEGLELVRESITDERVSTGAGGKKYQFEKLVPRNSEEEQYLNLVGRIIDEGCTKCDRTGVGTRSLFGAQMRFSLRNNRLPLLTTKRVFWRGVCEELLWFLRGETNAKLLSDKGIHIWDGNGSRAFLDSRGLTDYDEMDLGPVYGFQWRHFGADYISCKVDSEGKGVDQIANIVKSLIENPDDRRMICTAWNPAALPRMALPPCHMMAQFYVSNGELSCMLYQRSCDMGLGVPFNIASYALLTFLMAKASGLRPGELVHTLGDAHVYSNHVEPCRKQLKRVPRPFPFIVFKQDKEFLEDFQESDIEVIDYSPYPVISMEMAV
For a further assay, the target named is TS activity of TbDHFR-TS (Trypanosoma brucei brucei, UniProt Q27783). Conditions: cited from earlier work.
TS activity of TbDHFR-TS, sequence (Q27783 whole entry): as above
The subject of a further assay is T. brucei. Conditions: cited from earlier work; for potency against T. brucei: thymidine and folate-deficient medium.

Usually IC50 stands for the midpoint of a concentration-inhibition curve. For `Cc1nc2ccc(CN(C)c3ccc(C(=O)N[C@@H](CCC(=O)O)C(=O)O)s3)cc2c(=O)[nH]1` [Raltitrexed], the “Inhibition Rate at 25 μg/mL” value in assay [1] (25 μg/mL) is listed as 99.47 ± 0.07%; in assay [2] (25 μg/mL) it was 99.6 ± 0.33%; in assay [3] (25 μg/mL), 99.68 ± 0.16%; in assay [4] (25 μg/mL, mean ± SD), “low trypanocidal rate”; in assay [5] (25 μg/mL), 99.8 ± 0.027%; in the assay with T. evansi (Tev) Tansui (25 μg/mL), 99.9 ± 0.12%. Moreover, the inhibition at 0.25 µg/mL came out at 0% in assay [1] (Trypanosoma brucei, 0.25 μg/mL, read-out: Inhibition Rate at 0.25 μg/mL); 0% in assay [2] (Trypanosoma brucei, GAMBIENSE, 0.25 μg/mL, read-out: Inhibition Rate at 0.25 μg/mL); 1.01 ± 1.4% in assay [3] (Trypanosoma brucei, RHODESIENSE, 0.25 μg/mL, read-out: Inhibition Rate at 0.25 μg/mL); 0% in [4] (Trypanosoma congolense, 0.25 μg/mL, mean ± SD, read-out: Inhibition Rate at 0.25 μg/mL); 0% in assay [5] (Trypanosoma equiperdum, 0.25 μg/mL, read-out: Inhibition Rate at 0.25 μg/mL); 0% with T. evansi (Tev) Tansui (0.25 μg/mL, read-out: Inhibition Rate at 0.25 μg/mL). The inhibition at 25 µg/mL in assay [1] (Trypanosoma brucei, 25 μg/mL, read-out: Inhibition Rate at 25 μg/mL) was greater than 99%; in assay [2] (Trypanosoma brucei, GAMBIENSE, 25 μg/mL, read-out: Inhibition Rate at 25 μg/mL) it was greater than 99%; in [3] (Trypanosoma brucei, RHODESIENSE, 25 μg/mL, read-out: Inhibition Rate at 25 μg/mL) it was greater than 99%; in [4] (Trypanosoma congolense, 25 μg/mL, mean ± SD, read-out: Inhibition Rate at 25 μg/mL) it was 1.77 ± 2.5%; in [5] (Trypanosoma equiperdum, 25 μg/mL, read-out: Inhibition Rate at 25 μg/mL), greater than 99%; with T. evansi (Tev) Tansui (25 μg/mL, read-out: Inhibition Rate at 25 μg/mL), greater than 99%. Besides, the IC50 was greater than 25 µg/mL in [4] (Trypanosoma congolense, 72 h, three days of cultivation); 5.18 to 24.1 µg/mL (≈ 11.3 to 52.6 µM) in the assay with six Trypanosoma species (Trypanosoma, range across species, serial dilution 25 to 0.78 μg/mL, read-out: IC50 range over the Trypanosoma species); 8.88 to 22.5 µg/mL (≈ 19.4 to 49.1 µM) with six Trypanosoma species (range against Trypanosoma, summary statement, read-out: estimated IC50 range); 93.1 nM in [6]; 215 nM at TS activity of TbDHFR-TS. The “trypanocidal action on all test strains” value with six Trypanosoma species (25 μg/mL) is “suppressed all the test strains”. Besides, the “effect of adding folate and thymidine on effectiveness” value with T. brucei (folate and/or thymidine added to the medium) is given as “addition of thymidine decreased the effectiveness of raltitrexed more so than the addition of folate”. For the same compound, the “potency against T. brucei” value in the assay with T. brucei is on record as “Nanomolar potency”.

With `CN(Cc1cnc2nc(N)nc(N)c2n1)c1ccc(C(=O)N[C@@H](CCC(=O)O)C(=O)O)cc1` [methotrexate], in the assay with T. brucei, the “potency against T. brucei” value was “Nanomolar potency”.

With `Nc1nc2[nH]cc(CCc3ccc(C(=O)N[C@@H](CCC(=O)O)C(=O)O)cc3)c2c(=O)[nH]1` [pemetrexed], in the assay on T. brucei, the “potency against T. brucei” value is “Nanomolar potency”.
